According to paper PMC6615597, “Spermine in semen of male sea lamprey acts as a sex pheromone” (PLoS Biology, 2019):
Read-outs that look alike come from different tables or passages of the source.

What was measured:
[1] = tested on: T1, TAAR348 (trace amine-associated receptor (TAAR)-like receptor 348); test: TR-FRET cAMP assay in TAAR348-expressing HEK293T cells; inhibition of […] spermine response; assay type: cell-based, Petromyzon marinus
T1 construct: full-length ORF (348 residues) with N-terminal Rho-tag, expressed in HEK293T

[2] = tested on: T1, TAAR348 (trace amine-associated receptor (TAAR)-like receptor 348); test: TR-FRET cAMP assay in TAAR348-expressing HEK293T cells (agonist); assay type: cell-based, Petromyzon marinus
[3] = tested on: TAAR348 (trace amine-associated receptor (TAAR)-like receptor 348)

SMILES: C1CNCCNCCNCCN1 [SP20, 1,4,7,10-tetraazacyclododecane]
- IC50 [1]: 0.6 ± 0.1 µM

SMILES: NCCCNCCCCNCCCNC(=O)Cc1cccc2ccccc12 [SP21, 1-naphthylacetyl spermine]
- EC50 [2]: 5 ± 1 µM

SMILES: NCCCNCCCCNCCCN [spermine]
- EC50 [3]: 34 ± 1 µM
